Laboratory results reported in ChEMBL document CHEMBL5614413, “Design, synthesis and biological evaluation of amphiphilic benzopyran derivatives as potent antibacterial agents against multidrug-resistant bacteria” (Eur J Med Chem, 2024).
≈ marks a conversion by molar mass, not a printed value.

How the values were obtained:
Staphylococcus aureus [1] = test: Antibacterial activity against erythromycin-susceptible Staphylococcus aureus ATCC 25923; assay type: functional
Staphylococcus aureus [2] = test: Antibacterial activity against penicillin-resistant Staphylococcus aureus ATCC 31007; assay type: functional
Staphylococcus aureus [3] = test: Antibacterial activity against methicillin-resistant Staphylococcus aureus ATCC 43300; assay type: functional
Bacillus subtilis = test: Antibacterial activity against penicillin-susceptible Bacillus subtilis ATCC 9372; assay type: functional
Enterococcus faecalis = test: Antibacterial activity against vancomycin-susceptible Enterococcus faecalis ATCC 29212; assay type: functional
[4] = tested on: Staphylococcus epidermidis; test: Antibacterial activity erythromycin-susceptible Staphylococcus epidermidis ATCC 12228; assay type: functional
Klebsiella pneumoniae = test: Antibacterial activity against Klebsiella pneumoniae ATCC 10031; assay type: functional
Acinetobacter baumannii = test: Antibacterial activity against Acinetobacter baumannii ATCC 19606; assay type: functional
Escherichia coli = test: Antibacterial activity against penicillin-susceptible Escherichia coli ATCC 25922; assay type: functional
Pseudomonas aeruginosa = test: Antibacterial activity against penicillin-susceptible Pseudomonas aeruginosa ATCC 27853; assay type: functional
[5] = Hemolytic activity in sheep RBC; assay type: toxicity, cell-based, Ovis aries, Erythrocyte; conditions: sheep red blood cells (erythrocytes)
[6] = Selectivity index, ratio of HC50 for hemolytic activity in sheep RBC to MIC for antibacterial activity against methicillin-resistant Staphylococcus aureus ATCC 43300; assay type: toxicity; conditions: sheep red blood cells (erythrocytes), read-out: Selectivity Index

Compound	MIC (Staphylococcus aureus [1]) [µg/mL]	MIC (Staphylococcus aureus [2]) [µg/mL]	MIC (Staphylococcus aureus [3]) [µg/mL]	MIC (Bacillus subtilis) [µg/mL]	MIC (Enterococcus faecalis) [µg/mL]	MIC [4] [µg/mL]	MIC (Klebsiella pneumoniae) [µg/mL]	MIC (Acinetobacter baumannii) [µg/mL]	MIC (Escherichia coli) [µg/mL]	MIC (Pseudomonas aeruginosa) [µg/mL]	HC50 [5] [µg/mL]	selectivity ratio [6]
CC(=O)c1ccc2c(c1OCC(=O)NCCCN1CCCC1)C=CC(C)(CCC=C(C)C)O2 (configuration not stated)	32 (≈ 70.4 µM)	32 (≈ 70.4 µM)	32 (≈ 70.4 µM)	64 (≈ 141 µM)	64 (≈ 141 µM)	64 (≈ 141 µM)	64 (≈ 141 µM)	128 (≈ 282 µM)	> 128	> 128	167	5.2
CC(=O)c1c(OCCCN(C)C)c2c(c3c1OC(C)(CCC=C(C)C)C=C3)OC(C)(CCC=C(C)C)C=C2 (configuration not stated)	2 (≈ 3.83 µM)	2 (≈ 3.83 µM)	4 (≈ 7.67 µM)	2 (≈ 3.83 µM)	1 (≈ 1.92 µM)	1 (≈ 1.92 µM)	> 128	> 128	> 128	> 128	64	16
COLISTIN	128	128	128	16	128	64	1	1	0.5	0.5		
CC(=O)c1c(OCCCN2CCOCC2)c2c(c3c1OC(C)(CCC=C(C)C)C=C3)OC(C)(CCC=C(C)C)C=C2 (configuration not stated)	> 128	> 128	> 128	> 128	> 128	> 128	> 128	> 128	> 128	> 128	> 128	< 10
CCCCN(CCCC)CCCNCCCOc1ccc(/C=C/C(=O)c2ccc3c(c2OC)C=CC(C)(CCC=C(C)C)O3)cc1 (configuration not stated)	8 (≈ 12.7 µM)	4 (≈ 6.34 µM)	4 (≈ 6.34 µM)	4 (≈ 6.34 µM)	2 (≈ 3.17 µM)	1 (≈ 1.59 µM)	16 (≈ 25.4 µM)	8 (≈ 12.7 µM)	4 (≈ 6.34 µM)	128 (≈ 203 µM)	66.9	16.7
CCCCN(CCCC)CCCNC(=O)COc1c(C(C)=O)ccc2c1C=CC(C)(CCC=C(C)C)O2 (configuration not stated)	16 (≈ 31.2 µM)	16 (≈ 31.2 µM)	8 (≈ 15.6 µM)	4 (≈ 7.8 µM)	32 (≈ 62.4 µM)	32 (≈ 62.4 µM)	128 (≈ 250 µM)	128 (≈ 250 µM)	> 128	> 128	270	33.8
CC(=O)c1ccc2c(c1OCCCN(C)CCCN(C)C)C=CC(C)(CCC=C(C)C)O2 (configuration not stated)	16 (≈ 36.1 µM)	32 (≈ 72.3 µM)	16 (≈ 36.1 µM)	16 (≈ 36.1 µM)	16 (≈ 36.1 µM)	16 (≈ 36.1 µM)	8 (≈ 18.1 µM)	8 (≈ 18.1 µM)	8 (≈ 18.1 µM)	32 (≈ 72.3 µM)	160	10
CC(=O)c1ccc2c(c1OCCCN1CCOCC1)C=CC(C)(CCC=C(C)C)O2 (configuration not stated)	> 128	> 128	> 128	128 (≈ 310 µM)	> 128	> 128	> 128	128 (≈ 310 µM)	> 128	> 128	560	< 4.4
COc1c(C(=O)/C=C/c2ccc(OCCCNCCN(C)C)cc2)ccc2c1C=CC(C)(CCC=C(C)C)O2 (configuration not stated)	8 (≈ 15 µM)	4 (≈ 7.51 µM)	4 (≈ 7.51 µM)	2 (≈ 3.75 µM)	2 (≈ 3.75 µM)	2 (≈ 3.75 µM)	16 (≈ 30 µM)	8 (≈ 15 µM)	4 (≈ 7.51 µM)	128 (≈ 240 µM)	270	67.6
CC(=O)c1ccc2c(c1OCCCN(C)C)C=CC(C)(CCC=C(C)C)O2 (configuration not stated)	16 (≈ 43.1 µM)	16 (≈ 43.1 µM)	16 (≈ 43.1 µM)	16 (≈ 43.1 µM)	16 (≈ 43.1 µM)	8 (≈ 21.5 µM)	8 (≈ 21.5 µM)	16 (≈ 43.1 µM)	32 (≈ 86.1 µM)	64 (≈ 172 µM)	194	11.9
COc1c(C(=O)/C=C/c2ccc(OCCCN)cc2)ccc2c1C=CC(C)(CCC=C(C)C)O2 (configuration not stated)	8 (≈ 17.3 µM)	16 (≈ 34.7 µM)	8 (≈ 17.3 µM)	8 (≈ 17.3 µM)	16 (≈ 34.7 µM)	8 (≈ 17.3 µM)	16 (≈ 34.7 µM)	16 (≈ 34.7 µM)	8 (≈ 17.3 µM)	16 (≈ 34.7 µM)	111	13.8
CC(=O)c1c(OCCCNCCN(C)C)c2c(c3c1OC(C)(CCC=C(C)C)C=C3)OC(C)(CCC=C(C)C)C=C2 (configuration not stated)	1 (≈ 1.77 µM)	2 (≈ 3.54 µM)	2 (≈ 3.54 µM)	2 (≈ 3.54 µM)	1 (≈ 1.77 µM)	0.5 (≈ 0.885 µM)	4 (≈ 7.08 µM)	2 (≈ 3.54 µM)	2 (≈ 3.54 µM)	32 (≈ 56.7 µM)	45.2	22.6
CC(=O)c1ccc2c(c1OCCCN(CCCN(C)C)CCCN(C)C)C=CC(C)(CCC=C(C)C)O2 (configuration not stated)	64 (≈ 125 µM)	64 (≈ 125 µM)	32 (≈ 62.3 µM)	32 (≈ 62.3 µM)	64 (≈ 125 µM)	32 (≈ 62.3 µM)	16 (≈ 31.1 µM)	16 (≈ 31.1 µM)	16 (≈ 31.1 µM)	64 (≈ 125 µM)	325	5.1
CC(=O)c1ccc2c(c1OCC(=O)NCCCN1CCN(C)CC1)C=CC(C)(CCC=C(C)C)O2 (configuration not stated)	128 (≈ 265 µM)	128 (≈ 265 µM)	128 (≈ 265 µM)	> 128	128 (≈ 265 µM)	128 (≈ 265 µM)	128 (≈ 265 µM)	128 (≈ 265 µM)	> 128	> 128	220	1.7
COc1c(C(=O)/C=C/c2ccc(OCCCN(C)CCCN(C)C)cc2)ccc2c1C=CC(C)(CCC=C(C)C)O2 (configuration not stated)	4 (≈ 7.13 µM)	4 (≈ 7.13 µM)	4 (≈ 7.13 µM)	4 (≈ 7.13 µM)	2 (≈ 3.57 µM)	1 (≈ 1.78 µM)	4 (≈ 7.13 µM)	8 (≈ 14.3 µM)	2 (≈ 3.57 µM)	> 128	119	29.8
CC(=O)c1ccc2c(c1OCCCN1CCCC1)C=CC(C)(CCC=C(C)C)O2 (configuration not stated)	32 (≈ 80.5 µM)	16 (≈ 40.2 µM)	16 (≈ 40.2 µM)	16 (≈ 40.2 µM)	16 (≈ 40.2 µM)	8 (≈ 20.1 µM)	8 (≈ 20.1 µM)	32 (≈ 80.5 µM)	> 128	> 128	366	
CNCCCOc1ccc(/C=C/C(=O)c2ccc3c(c2OC)C=CC(C)(CCC=C(C)C)O3)cc1 (configuration not stated)	8 (≈ 16.8 µM)	8 (≈ 16.8 µM)	16 (≈ 33.6 µM)	4 (≈ 8.41 µM)	4 (≈ 8.41 µM)	1 (≈ 2.1 µM)	32 (≈ 67.3 µM)	> 128	> 128	> 128	90.5	5.6
CNCCCOc1c(C(C)=O)ccc2c1C=CC(C)(CCC=C(C)C)O2 (configuration not stated)	8 (≈ 22.4 µM)	8 (≈ 22.4 µM)	16 (≈ 44.8 µM)	8 (≈ 22.4 µM)	4 (≈ 11.2 µM)	4 (≈ 11.2 µM)	16 (≈ 44.8 µM)	8 (≈ 22.4 µM)	16 (≈ 44.8 µM)	64 (≈ 179 µM)	90.1	
